Measurements published in PubChem BioAssay (NCI).
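Five compound concentrations were applied to cells in 96-well plates for 48 hours; endpoints were derived by simple linear interpolation of the resulting dose-response curve. TGI is the concentration that stops growth completely.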 Peptide text beside a SMILES is read from it. * marks the point of attachment. X34 = O=C(c1ccc(-c2ccc(Cl)cc2Cl)o1)*

Assays:
Assay in all cases: NCI-60 cell line screen, 48 h
LOX IMVI melanoma = system: LOX IMVI melanoma
HCC-2998 colon = system: HCC-2998 colon
HCT-116 colon = system: HCT-116 colon
SNB-75 CNS = system: SNB-75 CNS
CAKI-1 renal = system: CAKI-1 renal
MDA-MB-435 = system: MDA-MB-435
COLO 205 colon = system: COLO 205 colon
A498 renal = system: A498 renal
SW-620 colon = system: SW-620 colon
MCF7 breast = system: MCF7 breast
NCI/ADR-RES ovarian = system: NCI/ADR-RES ovarian
SF-268 CNS = system: SF-268 CNS
SF-295 CNS = system: SF-295 CNS
NCI-H460 lung = system: NCI-H460 lung
MDA-MB-231 breast = system: MDA-MB-231 breast
HS 578T breast = system: HS 578T breast
OVCAR-3 ovarian = system: OVCAR-3 ovarian
SF-539 CNS = system: SF-539 CNS
K-562 leukemia = system: K-562 leukemia
T-47D breast = system: T-47D breast

SMILES | TGI (LOX IMVI melanoma) [µM] | TGI (HCC-2998 colon) [µM] | TGI (HCT-116 colon) [µM] | TGI (SNB-75 CNS) [µM] | TGI (CAKI-1 renal) [µM] | TGI (MDA-MB-435) [µM] | TGI (COLO 205 colon) [µM] | TGI (A498 renal) [µM] | TGI (SW-620 colon) [µM] | TGI (MCF7 breast) [µM] | TGI (NCI/ADR-RES ovarian) [µM] | TGI (SF-268 CNS) [µM] | TGI (SF-295 CNS) [µM] | TGI (NCI-H460 lung) [µM] | TGI (MDA-MB-231 breast) [µM] | TGI (HS 578T breast) [µM] | TGI (OVCAR-3 ovarian) [µM] | TGI (SF-539 CNS) [µM] | TGI (K-562 leukemia) [µM] | TGI (T-47D breast) [µM]
CC(C)CNCCc1ccccn1 | > 100 | > 100 | > 100 | > 100 | > 100 | > 100 | > 100 | > 100 | > 100 | > 100 | > 100 | > 100 | > 100 | > 100 | > 100 | > 100 | > 100 |  |  | 
O=C1CCCCN1 | > 1120 | > 1120 | > 1120 | > 1120 | > 1120 |  | > 1120 | > 52 | > 1120 | > 1120 | > 707 | > 1120 | > 1120 | > 1120 |  |  | > 1120 | > 1120 | > 1120 | 
CC1=C[C@H]([C@H]2C=C(C)C(C(N)=O)=CN2Cc2c(Cl)cccc2Cl)N(Cc2c(Cl)cccc2Cl)C=C1C(N)=O | > 75 | > 75 | > 75 |  | > 75 | > 75 | > 75 | > 75 | > 75 | > 75 | > 75 | > 75 | > 75 | > 75 | > 75 | > 75 | > 75 | > 75 | > 75 | > 75
COc1ccc(C(=O)c2nc3ccccc3nc2N2CCN(c3ccccc3)CC2)cc1OC | > 100 | > 100 | > 100 | > 100 | > 100 | > 100 | > 100 | > 100 | > 100 | > 100 | > 100 | > 100 | > 100 | > 100 |  | > 100 | > 100 | > 100 | > 100 | > 100
C1=CC=C2NCCc3cccc(c3)CCNC3=CC=CC=CC3=NCCCCCCN=C2C=C1 | 26.9 |  |  | 49.9 | > 100 |  | 38.8 |  | 80.7 |  |  | > 100 | 49.6 | 25.3 |  |  | 99 | 23.5 | > 100 | 
COC(=O)C(CC(C)C)NC(=O)C(Cc1ccccc1)NC(=O)C1CCCN1C(=O)C(CO)NC(=O)c1ccc(-c2ccc(Cl)cc2Cl)o1 (stereo unspecified) (X34-SPFL-OMe; configuration not given here) | 47.9 | 27.4 | 92.1 | 88.8 | > 100 | 90.3 | 30.8 | 76.5 | > 100 | > 100 | 92.8 | > 100 | 46.5 | 38.9 | 32.3 | > 100 |  | 60.4 | 89.2 | > 100
CC(=O)OCCCCN1C(=O)CSc2ccccc21 | > 100 |  | > 100 | > 100 | > 100 | > 100 |  | > 100 | > 100 | > 100 |  |  | > 100 | > 100 |  | > 100 | > 100 | > 100 |  | > 100
COc1nc2ccc(CNc3ccc(C(=O)NC(CCC(=O)O)C(=O)O)cc3)cc2nc1OC (stereo unspecified) | > 100 | > 100 |  | > 100 |  | > 100 | > 100 | > 100 | > 100 | > 100 | > 100 | > 100 | > 100 | > 100 | > 100 | > 100 | > 100 |  | > 100 | > 100
CCCCC(=O)c1c(O)ccc2c(C)cc(=O)oc12 | > 100 | > 100 | > 100 | > 100 | > 100 | > 100 | > 100 | > 100 | > 100 | > 100 | > 100 | > 100 | > 100 | > 100 | > 100 | > 100 | > 100 | > 100 | > 100 | 51.4
CN1c2c(nc(N)[nH]c2=O)NCC1CCNc1ccc(C(=O)NC(CCC(=O)O)C(=O)O)cc1 (stereo unspecified) | 783 | 2080 | 1390 | 2660 | 1290 | 1770 | 2750 | 2820 | 1810 | 2030 | 3810 | 2710 | 2260 | 1570 | 3050 | 5910 | 2460 | 2190 | 841 | 4260
CC[C@@H]1CSC(/C=C/C2OC3OC(C)(C)OC3C3OC(C)(C)OC23)=N1 (stereo partly specified) | 20.6 | 12.7 | 14.2 | 29.6 | 28.6 | 20 | 18 |  | 11.2 | 16.8 | 95.7 | 18.8 | 46.6 | 61.2 | 25.7 | 75.2 | 16.7 | 30.4 | 62.4 | 16.8
